Experimental findings from patent US8987254B2, “Tetrahydropyrrolothiazine compounds” (Eli Lilly and Company, priority 2013, dated 2015) are described below.

What is called IC50 is the point on the concentration scale where inhibition reaches its midpoint.

The test system of series [1] is primary cortical neurons from PDAPP transgenic embryonic mice. Description: PDAPP Primary Neuronal Assay (Abeta ELISA). In kind it is cell-based. As to conditions: Mus musculus, Primary cortical neuron, 24 h. The procedure: (§1) For in vitro enzymatic and cellular assays, test compounds are prepared in DMSO to make up a 10 mM stock solution. The stock solution is serially diluted in DMSO to obtain a ten-point dilution curve with final compound concentrations ranging from […] to 0.05 nM in a 96-well round-bottom plate before conducting the in vitro enzymatic and whole cell assays.
A confirmatory whole cell assay is also run in primary neuronal cultures generated from PDAPP transgenic embryonic mice. Primary cortical neurons are prepared from Embryonic Day 16 PDAPP embryos and cultured in 96 well plates (15×10^4 cells/well in DMEM/F12 (1:1) plus 10% FBS). After 2 days in vitro, culture media is replaced with serum free DMEM/F12 (1:1) containing B27 supplement and 2 μM (final) of Ara-C (Sigma, C1768). At day 5 in vitro, neurons are incubated at 37° C. for 24 h in the presence/absence of inhibitors (diluted in DMSO) at the desired concentration. At the end of the incubation, conditioned media are analyzed for evidence of beta-secretase activity, for example, by analysis of Abeta peptides. Total Abeta peptides (Abeta 1-x) are measured by a sandwich ELISA, using monoclonal 266 as a capture antibody and biotinylated 3D6 as reporting antibody. Alternatively, Abeta 1-40 and Abeta 1-42 peptides are measured by a sandwich ELISA, using monoclonal 2G3 as a capture antibody for Abeta 1-40, and monoclonal 21F12 as a capture antibody for Abeta 1-42. Both Abeta 1-40 and Abeta 1-42 ELISAs use biotinylated 3D6 as the reporting antibody. The concentration of Abeta released in the conditioned media following the compound treatment corresponds to the activity of BACE1 under such conditions. The 10-point inhibition curve is plotted and fitted with the four-parameter logistic equation to obtain the EC50 and IC50 values for the Abeta-lowering effect.
On the technique in general: In an ELISA, binding on a coated surface is turned into a signal by an enzyme label.

Another series relates to PDAPP mice. Description: In Vivo Inhibition of Beta-Secretase (brain Abeta 1-x reduction). As to conditions: for Abeta 1-x peptide levels reduced in brain cortex / Abeta 1-x peptide levels reduced in brain hippocampus: 3 hours after administration, compared to vehicle-treated mice. The arrangement: species or system mouse. An excerpt: Several animal models, including mouse, guinea pig, dog, and monkey, may be used to screen for inhibition of beta-secretase activity in vivo following compound treatment. Animals used in this invention can be wild type, transgenic, or gene knockout animals. For example, the PDAPP mouse model, prepared as described in Games et al., Nature 373, 523-527 (1995), and other non-transgenic or gene knockout animals are useful to analyze in vivo inhibition of Abeta and sAPPbeta production in the presence of inhibitory compounds. Generally, 2 to 12 month old PDAPP mice, gene knockout mice or non-transgenic animals are administered compound formulated in vehicles, such as corn oil, cyclodextran, phosphate buffers, PHARMASOLVE®, or other suitable vehicles. One to twenty-four hours following the administration of compound, animals are sacrificed, and brains as well as cerebrospinal fluid and plasma are removed for analysis of Abetas, C99, and sAPP fragments. (See May, et al., Journal of Neuroscience, 31, 16507-16516 (2011)).
For standard in vivo pharmacology studies, animals are dosed with various concentrations of compound and compared to a vehicle-treated control group dosed at the same time. For some time course studies, brain tissue, plasma, or cerebrospinal fluid is obtained from selected animals, beginning at time 0 to establish a baseline. Compound or appropriate vehicle is administered to other groups and sacrificed at various times after dosing. Brain tissue, plasma, or cerebrospinal fluid is obtained from selected animals and analyzed for the presence of APP cleavage products, including Abeta peptides, sAPPbeta, and other APP fragments, for example, by specific sandwich ELISA assays. At the end of the test period, animals are sacrificed and brain tissues, plasma, or cerebrospinal fluid are analyzed for the presence of Abeta peptides, C99, and sAPPbeta, as appropriate. Brain tissues of APP transgenic animals may also be analyzed for the amount of beta-amyloid plaques following compound treatment. “Abeta 1-x peptide” as used herein refers to the sum of Abeta species that begin with residue 1 and ending with a C-terminus greater than residue 28. This detects the majority of Abeta species and is often called “total Abeta”.

The test system of another series is HEK293Swe cells. Description: HEK293Swe Whole Cell Assay (Abeta ELISA). In kind it is cell-based. As to conditions: Homo sapiens. The protocol: as §1
In vitro Abeta reduction assays have been described in the literature (See Dovey, et al., Journal of Neurochemistry, 76, 173-181 (2001); Seubert, et al., Nature, 361, 260 (1993); and Johnson-Wood, et al., Proc. Natl. Acad. Sci. USA, 94, 1550-1555 (1997)).
At the end of the incubation, conditioned media are analyzed for evidence of beta-secretase activity, for example, by analysis of Abeta peptides. Total Abeta peptides (Abeta 1-x) are measured by a sandwich ELISA, using monoclonal 266 as a capture antibody and biotinylated 3D6 as reporting antibody. Alternatively, Abeta 1-40 and Abeta 1-42 peptides are measured by a sandwich ELISA, using monoclonal 2G3 as a capture antibody for Abeta 1-40, and monoclonal 21F12 as a capture antibody for Abeta 1-42. Both Abeta 1-40 and Abeta 1-42 ELISAs use biotinylated 3D6 as the reporting antibody. The concentration of Abeta released in the conditioned media following the compound treatment corresponds to the activity of BACE1 under such conditions. The 10-point inhibition curve is plotted and fitted with the four-parameter logistic equation to obtain the EC50 and IC50 values for the Abeta-lowering effect.

The target of the next series is human BACE1(1-460):Fc (Homo sapiens (Human), UniProt P56817). Description: BACE1 FRET Assay. In kind it is biochemical. As to conditions: purified recombinant huBACE1:Fc, FRET substrate, pH 4.6; Mean ± SEM. The protocol:
as §1
Human BACE1 (accession number: AF190725) is cloned from total brain cDNA by RT-PCR. The nucleotide sequences corresponding to amino acid sequences #1 to 460 are inserted into the cDNA encoding human IgG1 (Fc) polypeptide (Vassar et al. 1999). This fusion protein of BACE1(1-460) and human Fc, named huBACE1:Fc, is constructed into the pJB02 vector. Human BACE1(1-460):Fc (huBACE1:Fc) is transiently expressed in HEK293 cells. 250 μg cDNA of each construct is mixed with Fugene 6 and added to 1 liter HEK293 cells. Four days after the transfection, conditioned media are harvested for purification.
huBACE1:Fc is purified by Protein A chromatography. The enzyme is stored at −80° C. in small aliquots.
Serial dilutions of test compounds are prepared as described above. Compounds are further diluted 20× in KH2PO4 buffer. […] The content is mixed well on a plate shaker for 10 minutes. Fifteen μL of two hundred pM human BACE1(1-460):Fc (See Vasser, et al., Science, 286, 735-741 (1999)) in the KH2PO4 buffer is added to the plate containing substrate and test compounds to initiate the reaction. The RFU of the mixture at time 0 is recorded at excitation wavelength 355 nm and emission wavelength 460 nm, after brief mixing on a plate shaker. The reaction plate is covered with aluminum foil and kept in a dark humidified oven at room temperature for 16 to 24 h. The RFU at the end of incubation is recorded with the same excitation and emission settings used at time 0. The difference of the RFU at time 0 and the end of incubation is representative of the activity of BACE1 under the compound treatment. RFU differences are plotted versus inhibitor concentration and a curve is fitted with a four-parameter logistic equation to obtain the EC50 and IC50 values. (See Sinha, et al., Nature, 402, 537-540 […]).

Structures are written as SMILES. Where two headings read alike, the source gives them in different places.

Chain of human BACE1(1-460):Fc (P56817 22-460): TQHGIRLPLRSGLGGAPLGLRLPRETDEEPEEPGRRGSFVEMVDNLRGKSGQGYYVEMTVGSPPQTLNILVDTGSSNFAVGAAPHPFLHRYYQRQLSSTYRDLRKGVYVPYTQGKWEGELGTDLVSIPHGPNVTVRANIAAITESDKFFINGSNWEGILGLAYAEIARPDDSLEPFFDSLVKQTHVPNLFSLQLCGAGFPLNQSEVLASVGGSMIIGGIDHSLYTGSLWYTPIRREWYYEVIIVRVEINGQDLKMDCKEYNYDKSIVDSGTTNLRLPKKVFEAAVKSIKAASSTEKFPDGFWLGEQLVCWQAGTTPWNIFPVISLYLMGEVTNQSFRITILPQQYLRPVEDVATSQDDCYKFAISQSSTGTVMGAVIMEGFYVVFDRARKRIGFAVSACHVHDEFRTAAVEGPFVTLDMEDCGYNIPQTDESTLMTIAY

For `Cl.NC1=N[C@@]2(c3cccc(NC(=O)c4ccc(F)cn4)c3)CN(c3ncc(F)cn3)C[C@H]2CS1` [Example 1, N-{3-[(4aR,7aS)-2-Amino-6-(5-fluoropyrimidin-2-yl)-4a,5,6,7-tetrahydropyrrolo[3,4-d][1,3]thiazin-7a(4H)-yl]phenyl}-5-fluoropyridine-2-carboxamide hydrochloride], the concentration for half-maximal inhibition (IC50) was 487 pM in series [1] (Abeta 1-40, Mean ± SEM, read-out: PDAPP Neuron A-beta (1-40) ELISA IC50); 591 pM in series [1] (Abeta 1-42, Mean ± SEM, read-out: PDAPP Neuron A-beta (1-42) ELISA IC50); 619 pM in the series on HEK293Swe cells (HEK293, Abeta 1-40 in conditioned media, read-out: HEK 293 Swe A-beta (1-40) ELISA IC50); 437 pM with HEK293Swe cells (HEK293, Abeta 1-42 in conditioned media, read-out: HEK 293 Swe A-beta (1-42) ELISA IC50); 610 pM at human BACE1(1-460):Fc. In addition, in the series on PDAPP mice, the CNS penetration entry is “demonstrate CNS penetration”. Further, the “Abeta 1-x peptide levels reduced in brain cortex” value with PDAPP mice (1 mg/kg oral dose) is given as “approximately 43%”; with PDAPP mice (3 mg/kg oral dose), approximately 59%; in the series on PDAPP mice (10 mg/kg oral dose) it was approximately 66%. Moreover, the “Abeta 1-x peptide levels reduced in brain hippocampus” value in the series on PDAPP mice (1 mg/kg oral dose) is reported as “approximately 34%”; in the series with PDAPP mice (3 mg/kg oral dose), approximately 48%; in the series with PDAPP mice (10 mg/kg oral dose), approximately 53%.
